Laboratory results taken from PubChem BioAssay AID1845197 (Molecular Pharmacology Branch, DTP, NCI, 2023).

Tested on: 349418-098-R tumor spheroid viability
Experiment: Anticancer human tumor 349418-098-R patient-derived lung adenocarcinoma cell line growth inhibition
Conditions: spheroids with HUVEC and MSC; for viability, T/C: stronger effect = lower value
Outline: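 Complex tumor spheroids combined malignant cells with endothelial cells and mesenchymal stem cells. DNA-damaging drugs and DNA repair inhibitors were tested alone and in combination, at half-log dilutions down from clinical Cmax (top 10 microM if Cmax unknown), 0.25% DMSO final.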

[1] = curve of first compound, second compound 1 µM
[2] = curve of first compound, second compound 3.16 µM
[3] = curve of first compound, second compound 10 µM
[4] = curve of first compound, second compound 31.6 µM
[5] = curve of first compound, second compound 100 µM
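Further: spheroids exposed to compound for 7 days before measurement.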
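Wherever viability, T/C is given: percent of vehicle control viability with 100% = DMSO-treated spheroids.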

`Cc1sc2c(c1C)C(c1ccc(Cl)cc1)=NC(CC(=O)Nc1ccc(O)cc1)c1nnc(C)n1-2` (stereo not given) + Cn1nnc2c(C(N)=O)ncn2c1=O was tested, and the IC50 [1] was 0.143 µM, the IC50 [2] was 0.133 µM and the IC50 [3] was 0.129 µM. The IC50 [4] was 0.154 µM, the IC50 [5] was 0.129 µM and the viability, T/C (second compound 1 µM, first compound 0.00949 µM) was 99%. It also gave a viability, T/C (second compound 1 µM, first compound 0.03 µM) of 102%, a viability, T/C (second compound 1 µM, first compound 0.0949 µM) of 67.8% and a viability, T/C (second compound 1 µM, first compound 0.3 µM) of 16.6%. The viability, T/C (second compound 1 µM, first compound 0.949 µM) was 1.96%, the viability, T/C (second compound 1 µM, first compound 3 µM) was 0.51% and the viability, T/C (second compound 3.16 µM, first compound 0.00949 µM) was 99.2%. It also gave a viability, T/C (second compound 3.16 µM, first compound 0.03 µM) of 105%, a viability, T/C (second compound 3.16 µM, first compound 0.0949 µM) of 62.7% and a viability, T/C (second compound 3.16 µM, first compound 0.3 µM) of 16.5%. The viability, T/C (second compound 3.16 µM, first compound 0.949 µM) was 1.3%, the viability, T/C (second compound 3.16 µM, first compound 3 µM) was 0.49% and the viability, T/C (second compound 10 µM, first compound 0.00949 µM) was 99.2%. For the same molecule, the viability, T/C (second compound 10 µM, first compound 0.03 µM) was 102%, the viability, T/C (second compound 10 µM, first compound 0.0949 µM) was 63.7% and the viability, T/C (second compound 10 µM, first compound 0.3 µM) was 10.9%. For the same molecule, the viability, T/C (second compound 10 µM, first compound 0.949 µM) was 1.25%, the viability, T/C (second compound 10 µM, first compound 3 µM) was 0.39% and the viability, T/C (second compound 31.6 µM, first compound 0.00949 µM) was 103%. It also gave a viability, T/C (second compound 31.6 µM, first compound 0.03 µM) of 103%, a viability, T/C (second compound 31.6 µM, first compound 0.0949 µM) of 72.1% and a viability, T/C (second compound 31.6 µM, first compound 0.3 µM) of 19.3%. The viability, T/C (second compound 31.6 µM, first compound 0.949 µM) was 1.26%, the viability, T/C (second compound 31.6 µM, first compound 3 µM) was 0.43% and the viability, T/C (second compound 100 µM, first compound 0.00949 µM) was 106%. It also gave a viability, T/C (second compound 100 µM, first compound 0.03 µM) of 105%, a viability, T/C (second compound 100 µM, first compound 0.0949 µM) of 64.9% and a viability, T/C (second compound 100 µM, first compound 0.3 µM) of 9.26%. It also gave a viability, T/C (second compound 100 µM, first compound 0.949 µM) of 0.75% and a viability, T/C (second compound 100 µM, first compound 3 µM) of 0.45%.
In the case of `CC(C)n1c(=O)n(C)c2cnc3cc(F)c(-c4ccc(OCCCN5CCCCC5)nc4)cc3c21` + Cn1nnc2c(C(N)=O)ncn2c1=O, the IC50 [1] is reported as 9.75 µM, the IC50 [2] is reported as 9 µM and the IC50 [3] is reported as 9.25 µM. It also gave an IC50 [4] of 8.89 µM, an IC50 [5] of 8.48 µM and a viability, T/C (second compound 1 µM, first compound 0.0316 µM) of 104%. For the same molecule, the viability, T/C (second compound 1 µM, first compound 0.1 µM) was 99.5%, the viability, T/C (second compound 1 µM, first compound 0.316 µM) was 101% and the viability, T/C (second compound 1 µM, first compound 1 µM) was 101%. For the same molecule, the viability, T/C (second compound 1 µM, first compound 3.16 µM) was 103%, the viability, T/C (second compound 1 µM, first compound 10 µM) was 48.8% and the viability, T/C (second compound 3.16 µM, first compound 0.0316 µM) was 102%. For the same molecule, the viability, T/C (second compound 3.16 µM, first compound 0.1 µM) was 105%, the viability, T/C (second compound 3.16 µM, first compound 0.316 µM) was 103% and the viability, T/C (second compound 3.16 µM, first compound 1 µM) was 103%. The viability, T/C (second compound 3.16 µM, first compound 3.16 µM) was 102%, the viability, T/C (second compound 3.16 µM, first compound 10 µM) was 44.7% and the viability, T/C (second compound 10 µM, first compound 0.0316 µM) was 98.6%. The viability, T/C (second compound 10 µM, first compound 0.1 µM) was 103%, the viability, T/C (second compound 10 µM, first compound 0.316 µM) was 99.6% and the viability, T/C (second compound 10 µM, first compound 1 µM) was 103%. It also gave a viability, T/C (second compound 10 µM, first compound 3.16 µM) of 104%, a viability, T/C (second compound 10 µM, first compound 10 µM) of 46.3% and a viability, T/C (second compound 31.6 µM, first compound 0.0316 µM) of 102%. It also gave a viability, T/C (second compound 31.6 µM, first compound 0.1 µM) of 106%, a viability, T/C (second compound 31.6 µM, first compound 0.316 µM) of 98.4% and a viability, T/C (second compound 31.6 µM, first compound 1 µM) of 105%. It also gave a viability, T/C (second compound 31.6 µM, first compound 3.16 µM) of 105%, a viability, T/C (second compound 31.6 µM, first compound 10 µM) of 43.9% and a viability, T/C (second compound 100 µM, first compound 0.0316 µM) of 103%. For the same molecule, the viability, T/C (second compound 100 µM, first compound 0.1 µM) was 107%, the viability, T/C (second compound 100 µM, first compound 0.316 µM) was 105% and the viability, T/C (second compound 100 µM, first compound 1 µM) was 102%. It also gave a viability, T/C (second compound 100 µM, first compound 3.16 µM) of 102% and a viability, T/C (second compound 100 µM, first compound 10 µM) of 41.3%.
With `COc1cc2c(cc1O)CCNC21CSC2c3c(OC(C)=O)c(C)c4c(c3C(COC1=O)N1C(O)C3Cc5cc(C)c(OC)c(O)c5C(C21)N3C)OCO4` (stereo not given) the viability, T/C (compound 94.9 pM) was 90.5% [middle of 10 runs], the viability, T/C (compound 0.0003 µM) was 88.1% [middle of 10 runs] and the viability, T/C (compound 0.000949 µM) was 0.55% [middle of 10 runs]. The viability, T/C (compound 0.003 µM) was 1.4% [middle of 9 runs] and the IC50 (compound alone, run of 10/25/2019) was 0.496 nM [middle of 9 runs].
